The values below come from US20190135793A1, “HETEROCYCLIC INHIBITORS OF KDM5 FOR THE TREATMENT OF DISEASE” (Board of Regents, The University of Texas System, priority 2017, published 2019).

pIC50: −log10 of the molar value. Read-outs that look alike come from different tables or passages of the source.

For one assay, the target named is T1, KDM5B (Homo sapiens, UniProt Q9UGL1).
T1 construct: Full length of KDM5B and KDM4C protein were purchased from Active Motif; purchased Active Motif 31832
The assay is described as follows: biochemical. As to the method:
(§1) KDM4C and KDM5B AlphaScreen Assay Material and Method
(§2) Compounds disclosed herein were (and can be) screened using the following assay.
Peptides used in all experiments were purchased from Anaspe. […] Final concentration of KDM5B and KDM4C used in the assay were 0.5 nM and 0.2 nM. Final concentration of peptides for 5B and 4C used in the assay were 3 nM.
(§3) 4 μL of KDM5B or KDM4C protein were added to 384-well OptiPlate by using multiflow, followed by 4 μl of either buffer or compound. Plates were sealed, spun down and incubated at RT for 15 min. 4 μl of biotinylated peptide was added to the plate, the plate was incubated at room temperature for 25 minutes (KDM5B) and 30 minutes (KDM4C) after sealed and spun down. Streptavidin donor beads and acceptor beads were diluted and mixed in the detection buffer with 7.5 mM EDTA, followed by adding 8 μl of acceptor and donor beads mix to the plate, before the plate was sealed and incubated at room temperature for 3 h or overnight at dark. The plate was read on Envision plate reader (PerkinElmer) using Alphascreen protocol. IC50s were calculated in GraphPad Prism 6.

A further assay deals with T2, KDM4C (Homo sapiens, UniProt Q9H3R0).
T2 construct: Full length of KDM5B and KDM4C protein were purchased from Active Motif; purchased Active Motif 31858
T2 sequence (Q9H3R0 1-1056): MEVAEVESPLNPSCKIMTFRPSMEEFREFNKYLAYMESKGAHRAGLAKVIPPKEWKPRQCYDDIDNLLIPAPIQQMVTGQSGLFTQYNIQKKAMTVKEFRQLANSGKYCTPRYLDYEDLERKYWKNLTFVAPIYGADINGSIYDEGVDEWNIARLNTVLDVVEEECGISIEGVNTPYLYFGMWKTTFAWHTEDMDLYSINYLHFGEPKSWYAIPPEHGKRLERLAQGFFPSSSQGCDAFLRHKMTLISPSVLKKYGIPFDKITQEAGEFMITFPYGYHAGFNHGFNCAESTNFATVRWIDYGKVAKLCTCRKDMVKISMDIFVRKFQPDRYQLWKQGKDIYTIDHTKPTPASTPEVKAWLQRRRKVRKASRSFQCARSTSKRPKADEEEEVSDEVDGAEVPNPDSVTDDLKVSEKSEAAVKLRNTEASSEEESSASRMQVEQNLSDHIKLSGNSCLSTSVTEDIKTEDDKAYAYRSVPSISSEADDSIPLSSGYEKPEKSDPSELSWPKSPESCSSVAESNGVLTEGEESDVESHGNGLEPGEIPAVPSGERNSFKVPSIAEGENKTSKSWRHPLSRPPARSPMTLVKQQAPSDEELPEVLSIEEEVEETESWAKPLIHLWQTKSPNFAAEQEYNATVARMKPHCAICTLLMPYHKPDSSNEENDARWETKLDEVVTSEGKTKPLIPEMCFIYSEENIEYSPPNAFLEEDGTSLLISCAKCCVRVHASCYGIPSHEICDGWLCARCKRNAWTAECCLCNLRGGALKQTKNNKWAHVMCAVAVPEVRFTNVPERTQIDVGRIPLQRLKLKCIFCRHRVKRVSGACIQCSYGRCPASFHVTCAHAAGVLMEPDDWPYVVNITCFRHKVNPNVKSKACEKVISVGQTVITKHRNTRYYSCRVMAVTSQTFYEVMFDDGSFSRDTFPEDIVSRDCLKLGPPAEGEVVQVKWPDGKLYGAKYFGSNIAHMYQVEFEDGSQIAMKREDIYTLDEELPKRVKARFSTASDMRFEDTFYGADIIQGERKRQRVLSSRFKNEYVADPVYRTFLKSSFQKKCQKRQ
The assay is described as follows: KDM4C AlphaScreen assay. The class given is biochemical. As for the experimental part:
as §1, §2
Peptides used in all experiments were purchased from Anaspe. Full length of KDM5B and KDM4C protein were purchased from Active Motif: KDM5B (cat#31832) and KDM4C (Cat #31858). Final concentration of KDM5B and KDM4C used in the assay were 0.5 nM and 0.2 nM. Final concentration of peptides for 5B and 4C used in the assay were 3 nM.
as §3, with “AlphaScreen assays was conducted as following protocol: buffer used to make compound plate or DMSO is composed of 50 mM HEPES pH 7.4, 0.003% Tween-20; buffer used to dilute enzyme is composed of 50 mM HEPES pH 7.4, 0.003% Tween-20, 0.01% BSA, 500 μM TCEP; and buffer used to dilute the substrate is composed of 50 mM HEPES pH 7.4, 0.003% Tween-20, (NH4)2Fe(SO4)2 15 μM, alpha-ketoglutaric acid 4 μM and L-ascorbic acid 100 μM. 4 μL” for “4 μL”
Background: Alpha assays give light when donor and acceptor beads are brought close together.

[1] abbreviates: AlphaScreen, full length KDM4C 0.2 nM, biotinylated H3K9Me3 peptide 3 nM, 30 minutes at room temperature.

T1 sequence (Q9UGL1 whole entry): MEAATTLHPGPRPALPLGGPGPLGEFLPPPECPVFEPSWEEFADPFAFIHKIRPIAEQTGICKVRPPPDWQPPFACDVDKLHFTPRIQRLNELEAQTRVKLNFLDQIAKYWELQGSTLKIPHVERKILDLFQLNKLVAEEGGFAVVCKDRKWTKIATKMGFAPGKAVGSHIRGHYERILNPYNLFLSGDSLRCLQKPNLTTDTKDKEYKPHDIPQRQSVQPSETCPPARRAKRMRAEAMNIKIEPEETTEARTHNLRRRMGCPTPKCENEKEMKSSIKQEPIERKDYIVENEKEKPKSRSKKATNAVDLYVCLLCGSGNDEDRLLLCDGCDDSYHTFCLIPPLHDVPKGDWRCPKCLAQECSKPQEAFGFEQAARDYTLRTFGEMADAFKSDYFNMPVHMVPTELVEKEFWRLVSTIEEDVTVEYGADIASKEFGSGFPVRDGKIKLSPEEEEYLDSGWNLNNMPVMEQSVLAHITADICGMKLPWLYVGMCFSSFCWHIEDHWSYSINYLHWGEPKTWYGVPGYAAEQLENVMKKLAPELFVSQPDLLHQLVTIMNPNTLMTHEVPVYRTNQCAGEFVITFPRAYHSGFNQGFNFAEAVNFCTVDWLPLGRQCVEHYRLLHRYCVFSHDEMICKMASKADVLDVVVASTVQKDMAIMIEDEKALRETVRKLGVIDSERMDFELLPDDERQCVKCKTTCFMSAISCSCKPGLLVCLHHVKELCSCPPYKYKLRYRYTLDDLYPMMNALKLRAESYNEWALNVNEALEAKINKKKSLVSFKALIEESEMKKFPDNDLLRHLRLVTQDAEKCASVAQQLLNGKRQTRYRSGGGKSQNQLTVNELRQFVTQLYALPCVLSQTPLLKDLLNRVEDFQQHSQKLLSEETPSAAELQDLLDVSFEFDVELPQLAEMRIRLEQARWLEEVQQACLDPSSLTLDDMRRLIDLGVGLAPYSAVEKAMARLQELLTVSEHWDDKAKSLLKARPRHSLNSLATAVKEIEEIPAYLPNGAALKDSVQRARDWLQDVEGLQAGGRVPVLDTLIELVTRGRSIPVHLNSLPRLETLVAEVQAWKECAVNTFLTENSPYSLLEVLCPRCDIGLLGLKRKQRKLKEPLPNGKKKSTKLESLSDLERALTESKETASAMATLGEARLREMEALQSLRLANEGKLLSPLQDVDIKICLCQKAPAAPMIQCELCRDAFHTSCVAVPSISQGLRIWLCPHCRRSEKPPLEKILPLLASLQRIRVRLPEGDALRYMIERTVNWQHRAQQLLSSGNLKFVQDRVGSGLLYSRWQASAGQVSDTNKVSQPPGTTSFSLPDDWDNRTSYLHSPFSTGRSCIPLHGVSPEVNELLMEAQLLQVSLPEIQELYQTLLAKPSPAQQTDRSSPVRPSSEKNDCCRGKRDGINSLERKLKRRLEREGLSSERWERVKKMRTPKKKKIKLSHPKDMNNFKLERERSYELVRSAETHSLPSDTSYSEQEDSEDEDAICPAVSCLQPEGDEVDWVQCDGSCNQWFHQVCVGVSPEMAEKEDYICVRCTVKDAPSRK

As to `CC(C)c1c(O)nc(-n2ccnc2)nc1-c1cnn(C(C)C)c1` [Example 1, 2-(1H-imidazol-1-yl)-5-isopropyl-6-(1-isopropyl-1H-pyrazol-4-yl)pyrimidin-4-ol], the pIC50 against KDM5B was 7.92; against KDM4C (setting [1]) it was 5.98.

On to `CC(C)c1c(O)nc(-n2ccnc2-c2ccccn2)nc1Cl` [Example 2, 6-Chloro-5-(propan-2-yl)-2-[2-(pyridin-2-yl)-1H-imidazol-1-yl]pyrimidin-4-ol], for which the results for the negative logarithm of the IC50 (pIC50) on KDM5B and against KDM4C (setting [1]) were 6.64 and 5.41, respectively.

For the compound `CC(C)c1c(O)nc(-n2ccnc2-c2ccccn2)nc1-c1cnn(C(C)C)c1` [Example 3, 5-(Propan-2-yl)-6-[1-(propan-2-yl)-1H-pyrazol-4-yl]-2-[2-(pyridin-2-yl)-1H-imidazol-1-yl]pyrimidin-4-ol], the figures for the negative logarithm of the IC50 (pIC50) on KDM5B and at KDM4C (setting [1]) were 6.43 and 5.01, respectively.

`Cc1nccn1-c1nc(O)c(C(C)C)c(-c2cnn(C(C)C)c2)n1` [Example 4, 5-isopropyl-6-(1-isopropyl-1H-pyrazol-4-yl)-2-(2-methyl-1H-imidazol-1-yl)pyrimidin-4-ol]: the pIC50 was 6.90 at KDM5B and 5.35 against KDM4C (setting [1]).

On to `CC(C)c1c(O)nc(-n2ccnc2)nc1-c1cnn(CC(=O)O)c1` [Example 5, 2-(4-(6-Hydroxy-2-(1H-imidazol-1-yl)-5-isopropylpyrimidin-4-yl)-1H-pyrazol-1-yl)acetic acid], for which the values for the negative-log IC50 (pIC50) on KDM5B and on KDM4C (setting [1]) were 6.93 and 5.13, respectively.

As to `CC(C)c1c(O)nc(-n2ccnc2)nc1-c1cnn(CC(=O)NCCN2CCCC2)c1` [Example 6, 2-(4-(6-Hydroxy-2-(1H-imidazol-1-yl)-5-isopropylpyrimidin-4-yl)-1H-pyrazol-1-yl)-N-(2-(pyrrolidin-1-yl)ethyl)acetamide], the pIC50 was 8.40 against KDM5B and 6.67 at KDM4C (setting [1]).

As for `CC(C)c1c(O)nc(-n2ccnc2)nc1-c1cnn(CC(N)=O)c1` [Example 7, 2-(4-(6-Hydroxy-2-(1H-imidazol-1-yl)-5-isopropylpyrimidin-4-yl)-1H-pyrazol-1-yl)-acetamide], the results for the pIC50 on KDM5B and against KDM4C (setting [1]) were 7.96 and 5.94, respectively.

Take `CC(C)c1c(O)nc(-n2ccnc2)nc1-c1ccc(C(=O)NCCN(C)C)nc1` [Example 8, N-(2-(dimethylamino)ethyl)-5-(6-hydroxy-2-(1H-imidazol-1-yl)-5-isopropylpyrimidin-4-yl)-picolinamide]: the results for the negative-log IC50 (pIC50) on KDM5B and at KDM4C (setting [1]) were 8.10 and 6.12, respectively.

With `CC(C)c1c(O)nc(-n2ccnc2)nc1-c1ccc(C(N)=O)nc1` [Example 9, 5-(6-hydroxy-2-(1H-imidazol-1-yl)-5-isopropylpyrimidin-4-yl)picolinamide], the pIC50 on KDM5B (AlphaScreen, full length KDM5B 0.5 nM, biotinylated H3K4Me3 peptide 3 nM, 25 minutes at room temperature, read-out: KDM5B (IC50)) was 7.89; at KDM4C (setting [1]), 5.62.

As to `CC(C)c1c(O)nc(-n2ccnc2)nc1C#Cc1cccnc1` [Example 10a, 2-(1H-imidazol-1-yl)-5-(propan-2-yl)-6-[2-(pyridin-3-yl)ethynyl]pyrimidin-4-ol], the pIC50 was 7.96 against KDM5B and 6.04 on KDM4C (setting [1]).

For the compound `CC(C)c1c(O)nc(-n2ccnc2)nc1CCc1cccnc1` [Example 10b, 2-(1H-imidazol-1-yl)-5-(propan-2-yl)-6-[2-(pyridin-3-yl)ethyl]pyrimidin-4-ol], the negative-log IC50 (pIC50) against KDM5B was 7.96; on KDM4C (setting [1]) it was 5.83.

For the compound `CC(C)c1c(O)nc(-n2ccnc2)nc1OCCC1CCN(C)CC1` [Example 11, 2-(1H-imidazol-1-yl)-6-[2-(1-methylpiperidin-4-yl)ethoxy]-5-(propan-2-yl)pyrimidin-4-ol], the negative-log IC50 (pIC50) at KDM5B was 8.15; on KDM4C (setting [1]), 5.92.

`COc1nc(-n2ccnc2)nc(O)c1C(C)C` [Example 12, 2-(1H-Imidazol-1-yl)-5-isopropyl-6-methoxypyrimidin-4-ol]: the pIC50 against KDM5B is 6.97; against KDM4C (setting [1]) it was 5.84.

Regarding `CC(C)c1c(O)nc(-n2ccnc2)nc1OCCC1CCN(CCCC(F)(F)F)CC1` [Example 13, 2-(1H-imidazol-1-yl)-5-(propan-2-yl)-6-{2-[1-(4,4,4-trifluorobutyl)piperidin-4-yl]ethoxy}pyrimidin-4-ol], the pIC50 at KDM5B was 7.92; against KDM4C (setting [1]) it was 5.94.

Regarding `CC(C)c1c(O)nc(-n2ccnc2)nc1OCCC1CCN(C(=O)CCO)CC1` [Example 14, 3-hydroxy-1-[4-(2-{[6-hydroxy-2-(1H-imidazol-1-yl)-5-(propan-2-yl)pyrimidin-4-yl]oxy}-ethyl)piperidin-1-yl]propan-1-one], the negative logarithm of the IC50 (pIC50) was 7.49 on KDM5B and 5.70 against KDM4C (setting [1]).

`CC(C)c1c(O)nc(-n2ccnc2)nc1OCC(=O)O` [Example 15, 2-{[6-hydroxy-2-(1H-imidazol-1-yl)-5-(propan-2-yl)pyrimidin-4-yl]oxy}acetic acid]: the pIC50 on KDM5B was 6.19; against KDM4C (setting [1]), 4.99.

For the compound `CC(C)c1c(O)nc(-n2ccnc2)nc1OCC(=O)N1CCN(C)CC1` [Example 16, 2-{[6-hydroxy-2-(1H-imidazol-1-yl)-5-(propan-2-yl)pyrimidin-4-yl]oxy}-1-(4-methylpiperazin-1-yl)ethan-1-one], the pIC50 was 7.59 at KDM5B and 5.24 against KDM4C.

Consider `CC(C)c1c(O)nc(-n2ccnc2)nc1OCC(=O)NS(C)(=O)=O` [Example 17, 2-{[6-hydroxy-2-(1H-imidazol-1-yl)-5-(propan-2-yl)pyrimidin-4-yl]oxy}-N-methanesulfonylacetamide], for which the figures for the negative logarithm of the IC50 (pIC50) at KDM5B and against KDM4C (setting [1]) were 6.83 and 5.02, respectively.

Take `CC(C)c1c(O)nc(-n2ccnc2)nc1NCc1cccnc1` [Example 18, 2-(1H-Imidazol-1-yl)-5-isopropyl-6-((pyridin-3-ylmethyl)amino)pyrimidin-4-ol]: the negative-log IC50 (pIC50) against KDM5B is 7.57; at KDM4C (setting [1]), 5.53.

For the compound `CC(C)c1c(O)nc(-c2cncs2)nc1OCc1cccnc1` [Example 19, 5-(propan-2-yl)-6-(pyridin-3-ylmethoxy)-2-(1,3-thiazol-5-yl)pyrimidin-4-ol], the pIC50 is 7.04 on KDM5B and 5.75 against KDM4C (setting [1]).

As to `CC(C)c1c(O)nc(-c2cncs2)nc1-c1cnn(Cc2ccccc2)c1` [Example 20, 6-(1-Benzyl-1H-pyrazol-4-yl)-5-(propan-2-yl)-2-(1,3-thiazol-5-yl)pyrimidin-4-ol], the pIC50 against KDM5B is 7.00; against KDM4C (setting [1]) it was 4.95.

With `Cc1nc(-c2c[nH]cn2)nc(O)c1C(C)C` [Example 21, 2-(1H-imidazol-4-yl)-5-isopropyl-6-methylpyrimidin-4-ol], the pIC50 is 5.71 against KDM5B and 4.68 against KDM4C (setting [1]).

For orientation: pIC50 means the negative decadic logarithm of the IC50, by convention in mol/L.
